Experimental data from PubChem BioAssay (NCI).
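Step 1: Grow cells in 96-well plates. Step 2: Expose to compound for 48 hours at 5 concentrations. Step 3: Interpolate endpoints linearly; if unreached, use highest concentration. At the TGI there is no net growth.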

Key:
Experiment in all cases: growth of human tumour cells (NCI), 48 h
NCI-H460 lung = test system: NCI-H460 lung
DMS 114 small cell lung = test system: DMS 114 small cell lung
RXF-631 renal = test system: RXF-631 renal
LXFL 529 NSCLC = test system: LXFL 529 NSCLC
DMS 273 small cell lung = test system: DMS 273 small cell lung
M19-MEL melanoma = test system: M19-MEL melanoma
DLD-1 colon = test system: DLD-1 colon
SNB-78 CNS = test system: SNB-78 CNS
KM20L2 colon = test system: KM20L2 colon
XF 498 CNS = test system: XF 498 CNS
HOP-18 NSCLC = test system: HOP-18 NSCLC

## CC(C)[Si]1(C(C)C)OCC2OC(n3ccc(=O)[nH]c3=O)C([Se]c3ccccc3)C2O[Si](C(C)C)(C(C)C)O1 (configuration not stated)
NCI-H460 lung
  TGI: 3.89 µM

## O=c1[nH][nH]c(=O)c2c1ccc1oc3ccccc3c12
NCI-H460 lung
  TGI: > 100 µM

## COc1ccc(/C=C\c2cc(OC)c(OC)c(OC)c2)cc1
DMS 114 small cell lung
  TGI: > 100 µM
NCI-H460 lung
  TGI: 15.6 µM
RXF-631 renal
  TGI: > 100 µM
LXFL 529 NSCLC
  TGI: > 100 µM
DMS 273 small cell lung
  TGI: > 100 µM
M19-MEL melanoma
  TGI: > 100 µM
DLD-1 colon
  TGI: > 100 µM

## O=C(Cn1c2ccc(Br)cc2c2nc3ccccc3nc21)Nc1ccccc1
NCI-H460 lung
  TGI: > 100 µM

## CC(Cn1c2c(c3cc(O)ccc31)CCc1ccc(O)cc1-2)N(C)C (configuration not stated)
NCI-H460 lung
  TGI: 31.8 µM

## CCCNCCCCC(NC(C)=O)C(=O)NCc1ccccc1 (configuration not stated)
SNB-78 CNS
  TGI: > 100 µM
DMS 114 small cell lung
  TGI: > 100 µM
NCI-H460 lung
  TGI: > 100 µM
KM20L2 colon
  TGI: > 100 µM
XF 498 CNS
  TGI: > 100 µM
RXF-631 renal
  TGI: > 100 µM
LXFL 529 NSCLC
  TGI: > 100 µM
DMS 273 small cell lung
  TGI: > 100 µM
M19-MEL melanoma
  TGI: > 100 µM
DLD-1 colon
  TGI: > 100 µM

## O=C(Nc1ccccc1)OCCN=C1c2ccccc2CCc2ccccc21
NCI-H460 lung
  TGI: 44.4 µM

## Cc1ccc(C(=O)Oc2ccccc2)cc1N=NN(C)C
SNB-78 CNS
  TGI: > 100 µM
NCI-H460 lung
  TGI: > 100 µM
KM20L2 colon
  TGI: > 100 µM
LXFL 529 NSCLC
  TGI: > 100 µM
DMS 273 small cell lung
  TGI: > 100 µM
M19-MEL melanoma
  TGI: > 100 µM
DLD-1 colon
  TGI: > 100 µM

## COc1ccc(C2Cc3cc(OC)c(OC)c(OC)c3C2)cc1 (configuration not stated)
SNB-78 CNS
  TGI: > 100 µM
DMS 114 small cell lung
  TGI: > 100 µM
HOP-18 NSCLC
  TGI: > 100 µM
NCI-H460 lung
  TGI: > 100 µM
KM20L2 colon
  TGI: > 100 µM
XF 498 CNS
  TGI: 54.5 µM
DMS 273 small cell lung
  TGI: > 100 µM
M19-MEL melanoma
  TGI: > 100 µM
DLD-1 colon
  TGI: > 100 µM

## CN1CCc2ccccc2C(C(=O)c2ccc3c(c2)OCO3)C1=O (configuration not stated)
DMS 114 small cell lung
  TGI: > 100 µM
HOP-18 NSCLC
  TGI: > 100 µM
NCI-H460 lung
  TGI: > 100 µM
KM20L2 colon
  TGI: > 100 µM
XF 498 CNS
  TGI: > 100 µM
RXF-631 renal
  TGI: > 100 µM
LXFL 529 NSCLC
  TGI: > 100 µM
DMS 273 small cell lung
  TGI: > 100 µM
M19-MEL melanoma
  TGI: > 100 µM
DLD-1 colon
  TGI: > 100 µM

## O=C1CSC(c2ccccc2O)N1c1ccc(-n2c(-c3ccccc3)nc3ccccc3c2=O)cc1 (configuration not stated)
NCI-H460 lung
  TGI: 50.8 µM

## CCCCOC/N=C(/N)NC#N
SNB-78 CNS
  TGI: > 100 µM
DMS 114 small cell lung
  TGI: > 100 µM
HOP-18 NSCLC
  TGI: > 100 µM
NCI-H460 lung
  TGI: > 100 µM
KM20L2 colon
  TGI: > 100 µM
XF 498 CNS
  TGI: > 100 µM
RXF-631 renal
  TGI: > 100 µM
LXFL 529 NSCLC
  TGI: > 100 µM
DMS 273 small cell lung
  TGI: > 100 µM
DLD-1 colon
  TGI: > 100 µM

## C1CSCC2(COC2)CSCCSCC2(COC2)CS1
NCI-H460 lung
  TGI: > 100 µM

## CCOC(=O)c1nc2ccc(C(F)(F)F)cc2nc1Nc1ccc(OC)cc1
NCI-H460 lung
  TGI: > 100 µM

## COC(=O)c1ccc2c(c1)CC1(C2)Cc2ccccc2C1=O (configuration not stated)
NCI-H460 lung
  TGI: > 100 µM

## CCOC(=O)c1c[nH]c(C(=O)C=[N+]=[N-])c1C1CCN(CC)C1=S (configuration not stated)
NCI-H460 lung
  TGI: > 100 µM

## Cc1ccc(S(=O)(=O)N2CCNCCN(S(=O)(=O)c3ccc(C)cc3)CCNCC2)cc1
NCI-H460 lung
  TGI: 36.8 µM

## NC(=O)[N+](=CC(=S)Nc1ccccc1Cl)C(N)=O
NCI-H460 lung
  TGI: > 100 µM

## C=C1C(=O)O[C@H]2C1C[C@H](O)[C@@]1(C)OC1CC[C@@]1(C)O[C@H]21 (some centres not stated)
NCI-H460 lung
  TGI: > 100 µM

## Cc1ccc(S(=O)(=O)N/N=C2/CCC3(O)CC2(C)CCC2[C@H]3CC2(C)C)cc1 (some centres not stated)
NCI-H460 lung
  TGI: 64.3 µM

## O=C1NC(N/N=C\c2ccccc2)=N/C1=C/c1ccccc1
NCI-H460 lung
  TGI: > 100 µM

## CC(=O)[C@H]1[C@H](O)C[C@@]2(C)[C@@H]3CCc4cc(O)c(OC5OC(CO)C(O)C(O)C5O)cc4C3(C)C(=O)C[C@]12C (some centres not stated)
NCI-H460 lung
  TGI: > 100 µM

## CC1=CCC(C(C)(C)NC(=O)c2ccccc2)C/C1=N/O (configuration not stated)
NCI-H460 lung
  TGI: > 100 µM

## CO/C(=N\N=C\c1ccc(Cl)c(Cl)c1)c1ccncc1
NCI-H460 lung
  TGI: > 10 µM

## O=C(/C=C/c1ccccc1O)c1ccccc1Cl
SNB-78 CNS
  TGI: > 100 µM
DMS 114 small cell lung
  TGI: 58 µM
HOP-18 NSCLC
  TGI: > 100 µM
NCI-H460 lung
  TGI: > 100 µM
KM20L2 colon
  TGI: > 100 µM
XF 498 CNS
  TGI: > 100 µM
RXF-631 renal
  TGI: > 100 µM
LXFL 529 NSCLC
  TGI: > 100 µM
DMS 273 small cell lung
  TGI: > 100 µM
M19-MEL melanoma
  TGI: > 100 µM
DLD-1 colon
  TGI: > 100 µM

## Cc1sc2nc3n(c(=O)c2c1C)N=CN(c1ccc(Cl)cc1)C3
NCI-H460 lung
  TGI: > 100 µM

## COc1ccc(COCC[C@H](C)OC2OC(CO)C(O)C(O)C2O)cc1 (some centres not stated)
NCI-H460 lung
  TGI: > 100 µM

## O=CNc1ccccc1OCCOc1ccccc1NC=O
NCI-H460 lung
  TGI: > 100 µM

## CCCCCCCCC(O)c1ccc(/C=C\C(O)CCCC(=O)O)s1 (configuration not stated)
SNB-78 CNS
  TGI: > 100 µM
DMS 114 small cell lung
  TGI: > 100 µM
HOP-18 NSCLC
  TGI: > 100 µM
NCI-H460 lung
  TGI: > 100 µM
KM20L2 colon
  TGI: > 100 µM
XF 498 CNS
  TGI: > 100 µM
LXFL 529 NSCLC
  TGI: > 100 µM
DMS 273 small cell lung
  TGI: > 100 µM
M19-MEL melanoma
  TGI: > 100 µM
DLD-1 colon
  TGI: > 100 µM

## C[C@@H]1CC[C@H]2[C@H](C)C(OC3O[C@@H]4O[C@@]5(C)CC[C@H]6[C@H](C)CC[C@@H]([C@@H]3C)[C@@]46O5)O[C@@H]3O[C@@]4(C)CC[C@@H]1[C@]32O4 (some centres not stated)
NCI-H460 lung
  TGI: > 100 µM

## COC(=O)C(=O)C(C(=O)C(=O)Nc1ccc(C)cc1C)c1nc2ccc(Cl)cc2[nH]c1=O (configuration not stated)
NCI-H460 lung
  TGI: > 100 µM

## CN=c1sc2nc(C#N)c(C#N)nc2n1C
NCI-H460 lung
  TGI: 35.7 µM

## CC(C)(C)OC(=O)CCCCCNC(=O)CCCCCNC(=O)CCC(CN(CC(=O)OCc1ccccc1)CC(=O)OCc1ccccc1)N(CC(=O)OCc1ccccc1)CC(=O)OCc1ccccc1 (configuration not stated)
NCI-H460 lung
  TGI: > 100 µM

## CC(C)(O)c1cc2c(cc1C(C)(C)O)-c1ccccc1-2
NCI-H460 lung
  TGI: > 100 µM

## Cn1nnc2c3c(N(CCO)CCO)ccnc3ccc21
NCI-H460 lung
  TGI: > 100 µM

## Nc1ccccc1C(=O)N=Nc1c(O)[nH]c2ccccc12
NCI-H460 lung
  TGI: > 100 µM
